Assays:
μpatterned hiPSC-CMs [1] = experiment: traction force microscopy of moving microbeads under beating μpatterned hiPSC-CMs; type: cell-based, human; conditions: for absolute values of dmax, VC, VR, ΣFmax, PC and PR: six single cells (FIG. 5)
Procedure: We cultured single hiPSC-CMs on Matrigel micropatterns, which were transferred from printed glass coverslips onto the surface of polyacrylamide hydrogels with a stiffness of 10 kPa as previously described. (Ribeiro 2015a) In summary, Matrigel was diluted 1:10 in L15 medium (Thermo Fisher) and added to the top of elastomeric microstamps composed of polydimethylsiloxane 182 (Dow Corning) to be incubated at 3-4° C. overnight. Microstamps consisted of 2000 μm^2 rectangular features with an aspect ratio of 7:1 (length:width). We gently aspirated Matrigel after the overnight incubation, washed the stamps twice in L15 medium, aspirated L15 medium from the surface and dried it with a low stream of N2 gas. We then used microstamps to micropattern the Matrigel rectangular features on clean glass coverslips by microcontact printing. Matrigel on micropatterns was transferred to the surface of the polyacrylamide substrates during the gelation process by placing the patterned coverslip in contact with the top of the acrylamide prepolymer solution right before gelation. The aqueous prepolymer solution to be gelled was composed of acrylamide (Sigma-Aldrich)(10% w/v), bisacrylamide (Sigma-Aldrich) (0.1% w/v), ammonium persulfate (Sigma-Aldrich) (0.01% w/v) and N,N,N′,N′-tetramethylethylenediamine (Sigma-Aldrich) (0.1% v/v), HEPES (Thermo Fisher) (35 mM) and Milli-Q water. To calculate the forces generated by cells attached to polyacrylamide surfaces with traction force microscopy, green fluorescent microbeads with a diameter of 0.2 μm (Thermo Fisher) were also dispersed in the gel solution to yield a final concentration of 6.25×10^9 microbeads/mL. We gelled acrylamide on top of another coverslip functionalized with 3-(trimethoxysilyl)propyl methacrylate (Sigma-Aldrich), which binds polyacrylamide. […] Once polymerized, polyacrylamide substrates were incubated in PBS for at least 2 hours and the top coverslips were carefully removed with a razor blade. We seeded hiPSC-CMs on these polyacrylamide hydrogel substrates after washing them 3 times with PBS.
We passaged hiPSC-CMs onto micropatterned polyacrylamide devices at a density of 1000 cells/cm^2. For this purpose, cultures of thawed cells were washed twice with PBS and incubated in 1 mL of Accutase for 8-10 min. After observing cell detachment from the bottom of the wells, we quenched Accutase with Dulbecco's modified Eagle's medium (Thermo Fisher) containing 12% fetal bovine serum and counted the concentration of cells in medium with a hemocytometer. Then, we centrifuged cells at 83 rcf for 3 min at room temperature and aspirated the supernatant to resuspend the pelleted cells in the required volume of medium (RPMI-1640 cell-culture medium with 5 μM ROCK inhibitor) for adding 150 μL of cell solution to the surface of hydrogel devices at a concentration of 1000 cells/cm^2. After 1.5 h of incubation, we added 2.5 mL of medium to the well containing hydrogel devices and added fresh medium without ROCK inhibitor after 2 days. Single beating cells on Matrigel patterns were analyzed between 5-10 days after seeding.
We imaged the movement of beating hiPSC-CMs and the displacement of fluorescent microbeads embedded in polyacrylamide substrates with a Zeiss Axiovert 200M inverted microscope equipped with a Zeiss Axiocam MRm CCD camera. This microscope also contained an environmental chamber (PeCon) to set temperature at 37° C. Unless otherwise noted, we acquired microscopy videos while electrically pacing hiPSC-CMs with 10 ms-wide bipolar pulses of electric-field stimulation at 10-15 V with a frequency of 1 Hz (Myopacer, lonOptix).
To induce contractile changes in hiPSC-CMs, we added drugs known to affect CM contractile machinery to the culture medium. We analyzed the mechanical output of cells after adding drugs. […]

CMs = conditions: 0.1 μM isoproterenol (Butler 2015); cited from earlier work
hiPSC-CMs = conditions: 1 μM isoproterenol (Yokoo 2009); cited from earlier work
μpatterned hiPSC-CMs [2] = experiment: movement of LifeAct-labeled myofibrils in beating μpatterned hiPSC-CMs (cross-correlation, Ncorr); type: cell-based, human; conditions: 1 μM and 10 nM omecamtiv mecarbil (FIG. 11)

## CC(C)NCC(O)c1ccc(O)c(O)c1 (stereo not shown) [isoproterenol]
μpatterned hiPSC-CMs [1]; 0.1 μM and 1 μM isoproterenol, six cells, no significant difference between the two concentrations (FIG. 5G)
  t̂ (time between peak velocity of contraction and of relaxation): decreased
μpatterned hiPSC-CMs [1]; 0.1 μM and 1 μM isoproterenol, six cells, no significant difference between the two concentrations (FIG. 5H)
  br (beat rate): increased
μpatterned hiPSC-CMs [1]; 0.1 μM isoproterenol, single cell (FIG. 4D)
  br (beat rate): increased
μpatterned hiPSC-CMs [1]; 0.1 μM isoproterenol
  absolute values of dmax, VC, VR, ΣFmax, PC and PR: consistently increased
μpatterned hiPSC-CMs [1]; 1 μM isoproterenol, single cell (FIG. 4D)
  br (beat rate): clear increase
μpatterned hiPSC-CMs [1]; 1 μM isoproterenol, single cell (FIG. 4D,E)
  ΣFmax, PC and PR: substantial decrease
μpatterned hiPSC-CMs [1]; 1 μM isoproterenol
  absolute values of dmax, VC, VR, ΣFmax, PC and PR: decreased
μpatterned hiPSC-CMs [1]; ISO 0.1 (μM per FIG. 4), single cell, no ISO: 0.28
  PR (peak power of relaxation): 0.36 picoW
μpatterned hiPSC-CMs [1]; ISO 0.1 (μM per FIG. 4), single cell, no ISO: 0.53
  ΣFmax (peak force): 0.58 μN
μpatterned hiPSC-CMs [1]; ISO 0.1 (μM per FIG. 4), single cell, no ISO: 0.7
  PC (peak power of contraction): 0.86 picoW
μpatterned hiPSC-CMs [1]; ISO 0.1 (μM per FIG. 4), single cell, no ISO: 1.05
  VR (peak velocity of relaxation): 0.85 μm/s
μpatterned hiPSC-CMs [1]; ISO 0.1 (μM per FIG. 4), single cell, no ISO: 1.68
  VC (peak velocity of contraction): 1.92 μm/s
μpatterned hiPSC-CMs [1]; ISO 1 (μM per FIG. 4), single cell, no ISO: 0.28
  PR (peak power of relaxation): 0.06 picoW
μpatterned hiPSC-CMs [1]; ISO 1 (μM per FIG. 4), single cell, no ISO: 0.53
  ΣFmax (peak force): 0.15 μN
μpatterned hiPSC-CMs [1]; ISO 1 (μM per FIG. 4), single cell, no ISO: 0.7
  PC (peak power of contraction): 0.1 picoW
μpatterned hiPSC-CMs [1]; ISO 1 (μM per FIG. 4), single cell, no ISO: 1.05
  VR (peak velocity of relaxation): 0.93 μm/s
μpatterned hiPSC-CMs [1]; ISO 1 (μM per FIG. 4), single cell, no ISO: 1.68
  VC (peak velocity of contraction): 0.43 μm/s
μpatterned hiPSC-CMs [1]; extracellular isoproterenol 0.1 μM (FIGS. 4 and 5)
  inotropic and chronotropic response: positive inotropic and positive chronotropic responses
μpatterned hiPSC-CMs [1]; isoproterenol increased to 1 μM (FIGS. 4 and 5)
  inotropic and chronotropic response: negative inotropic effect, but a stronger chronotropic response
CMs
  inotropic and chronotropic response in CMs: positive inotropic and positive chronotropic responses
hiPSC-CMs
  beat rate: increase
  mechanical output: decrease

## COC(=O)N1CCN(Cc2cccc(NC(=O)Nc3ccc(C)nc3)c2F)CC1 [omecamtiv mecarbil]
μpatterned hiPSC-CMs [1]; 0.1 μM and 10 nM omecamtiv mecarbil, videos within 5 minutes after adding, 6 cells (FIG. 10)
  mechanical output (inotropy): decreased mechanical output (negative inotropy)
μpatterned hiPSC-CMs [1]; 0.1 μM omecamtiv mecarbil, single cell (FIG. 6D)
  ΣFmax and br, acute: slight acute increase
μpatterned hiPSC-CMs [1]; 0.1 μM omecamtiv mecarbil, single cell, even decreased in some contractile events (FIG. 6E)
  absolute values of PC and PR right after adding: did not vary
μpatterned hiPSC-CMs [1]; OM 0.1 μM (FIG. 6), row 'acute', single cell, no OM: 0.6
  PR (peak power of relaxation): 0.02 picoW
μpatterned hiPSC-CMs [1]; OM 0.1 μM (FIG. 6), row 'acute', single cell, no OM: 0.7
  ΣFmax (peak force): 0.14 μN
μpatterned hiPSC-CMs [1]; OM 0.1 μM (FIG. 6), row 'acute', single cell, no OM: 0.75
  PC (peak power of contraction): 0.04 picoW
μpatterned hiPSC-CMs [1]; OM 0.1 μM (FIG. 6), row 'acute', single cell, no OM: 1.18
  VR (peak velocity of relaxation): 0.18 μm/s
μpatterned hiPSC-CMs [1]; OM 0.1 μM (FIG. 6), row 'acute', single cell, no OM: 1.35
  VC (peak velocity of contraction): 0.29 μm/s
μpatterned hiPSC-CMs [1]; OM 0.1 μM (FIG. 6), row 'chronic', single cell, no OM: 0.6
  PR (peak power of relaxation): 0.59 picoW
μpatterned hiPSC-CMs [1]; OM 0.1 μM (FIG. 6), row 'chronic', single cell, no OM: 0.7
  ΣFmax (peak force): 0.72 μN
μpatterned hiPSC-CMs [1]; OM 0.1 μM (FIG. 6), row 'chronic', single cell, no OM: 0.75
  PC (peak power of contraction): 0.67 picoW
μpatterned hiPSC-CMs [1]; OM 0.1 μM (FIG. 6), row 'chronic', single cell, no OM: 1.18
  VR (peak velocity of relaxation): 1.1 μm/s
μpatterned hiPSC-CMs [1]; OM 0.1 μM (FIG. 6), row 'chronic', single cell, no OM: 1.35
  VC (peak velocity of contraction): 1.22 μm/s
μpatterned hiPSC-CMs [1]; higher concentrations of omecamtiv mecarbil (FIG. 10D)
  time of contractions: increase
μpatterned hiPSC-CMs [1]; lower concentrations of omecamtiv mecarbil (FIG. 10E)
  rate of beating: increased
μpatterned hiPSC-CMs [1]; omecamtiv mecarbil, within 5 minutes after adding (FIG. 10D,E)
  variations of t̂ and br between 0.1 μM and 10 nM: statistically different
μpatterned hiPSC-CMs [1]; within 10 seconds of adding 0.1 μM omecamtiv mecarbil, single cell (FIG. 10J)
  instantaneous acute inotropic effect: positive inotropy
μpatterned hiPSC-CMs [2]
  myofibril damage at other concentrations: Such level of damage was also observed

Reference: US20180106782A1, “HIGH THROUGHPUT CARDIOTOXICITY SCREENING PLATFORM” (The Board of Trustees of the Leland Stanford Junior …, priority 2016, published 2018)
